In ChEMBL document CHEMBL1158879, “Preparation of 7-Alkoxylated Furanopyrones: Semisynthesis of ()-Etharvensin, a New Styryl-Lactone from Goniothalamus arvensis” (J Nat Prod, 1997):
pIC50: −log10 of the molar value. The source made the active and inactive calls. The rule behind the calls is not given here.

Assays:
[1] = tested on: Aorta; assay: Inhibition of noradrenaline-induced contractile response in rat aorta in absence of calcium; format: functional, tissue-based
[2] = tested on: Aorta; assay: Inhibition of noradrenaline-induced contractile response in rat aorta at 100 uM in presence of calcium; format: functional, tissue-based

pIC50 [1]	SMILES	Activity [2]
4.10	O=C1CC[C@@H]2O[C@H](c3ccccc3)[C@@H](O)[C@@H]2O1 [GONIOTHARVENSIN]	inactive
–	CCO[C@@H]1CC(=O)O[C@H]2[C@H](O)[C@@H](c3ccccc3)O[C@H]21	inactive
4.11	O=C1C=C[C@@H]2O[C@H](c3ccccc3)[C@@H](O)[C@@H]2O1 [ALTHOLACTONE]	inactive
